Values quoted from earlier work in patent US20230285276A1, “Implantable Medical Device for the Delivery of Aromatase Inhibitor” (Celanese EVA Performance Polymers LLC, priority 2022, published 2023).

How the values were obtained:
[1] = system: circulating estrogen; details: postmenopausal women
[2] = system: adrenal biosynthesis of corticosteroids or aldosterone; details: in vivo

C=C1C[C@@H]2[C@H](CC[C@]3(C)C(=O)CC[C@@H]23)[C@@]2(C)C=CC(=O)C=C12 [Exemestane, 6-methylenandrosta-1,4-diene-3,17-dione]
circulating estrogen concentration [1]: lowers
effect on adrenal biosynthesis of corticosteroids or aldosterone [2]: no detectable effect
solubility in N, N-dimethylformamide (N, N-dimethylformamide, descriptive term): freely soluble
solubility in methanol (methanol, descriptive term): soluble
solubility in water (descriptive term) (water): practically insoluble
